# Read-outs that look alike come from different tables or passages of the source.
# How the values were obtained:
# [1] = tested on: Streptomyces albaduncus strain C38291; assay: growth inhibition of producing strain by antibiotics; format: cell-based
# From the text: The growth of strain C38291 is inhibited by streptomycin or tetracycline, but not by benzylpenicillin, ampicillin or erythromycin. The sodium chloride tolerance is seen at 8% or less, but not at 10% or more. Melanin is not produced from L-3,4-dihydroxy phenylalanine (L-DOPA). Among eleven diagnostic sugars described in Bergey's Manual, 8th ed. (1974), only raffinose is not utilized by strain C38291. The physiological characteristics and utilization of carbohydrates are shown in Tables II and III, respectively.
# [2] = tested on: Streptococcus pyogenes; assay: antibacterial activity, serial two-fold agar dilution method; format: cell-based; settings: Strain No. 9604
# Procedure: (§1) The antibacterial activities of albacarcin V and M were determined by a serial two-fold agar dilution method.
# [3] = tested on: Streptococcus pneumoniae; assay: as above; format: cell-based; settings: Strain No. 9585
# Procedure: as §1
# [4] = tested on: Proteus mirabilis; assay: as above; format: cell-based; settings: Strain No. 9900
# Procedure: as §1
# [5] = tested on: Pseudomonas aeruginosa; assay: as above; format: cell-based; settings: Strain No. 9843A
# Procedure: as §1
# [6] = tested on: Enterobacter cloacae; assay: as above; format: cell-based; settings: Strain No. 9659
# Procedure: as §1
# [7] = tested on: Klebsiella pneumoniae; assay: as above; format: cell-based; settings: Strain No. 15130
# Procedure: as §1
# [8] = tested on: Serratia marcescens; assay: as above; format: cell-based; settings: Strain No. 20019
# Procedure: as §1
# [9] = tested on: Escherichia coli; assay: as above; format: cell-based
# Procedure: as §1
# [10] = tested on: Proteus vulgaris; assay: as above; format: cell-based; settings: Strain No. 21559
# Procedure: as §1
# [11] = tested on: Staphylococcus aureus; assay: as above; format: cell-based; settings: for MIC: Staphylococcus aureus, read-out: Minimum Inhibitory Concentration
# Procedure: as §1
# [12] = tested on: P388 leukemia; format: in vivo, CDF1 female mice; settings: for Effect MST % T/C / MST (median survival time): 3X, Days 1,4,7; for host survival in the P388 leukemia screening test (in words): mouse, in vivo
# From the text: Details of the methods used in this procedure have been described in Cancer Chemother. Rep. 3: 1-87 (Part 3), 1972.
# Host CDF1 .female. mice
# Treatment 3X, Days 1,4,7
# Evaluation MST = median survival time
# Effect % T/C = (MST treated/MST control) × 100
# Criteria % T/C ≥ 125 considered significant antitumor activity.
# [13] = tested on: gram-positive bacteria; assay: antibacterial activity, agar dilution, gram-positive summary; format: cell-based; settings: summary of Table IV
# Procedure: as §1
# [14] = tested on: gram-negative bacteria; assay: antibacterial activity, agar dilution, gram-negative summary; format: cell-based; settings: at the highest dose tested
# Procedure: as §1
# [15] = reported in Antibiotiki 22: 963-967 at 967, 1977; cited from earlier work
molecule,measurement,setting,value
[H]/N=C(/N)N[C@H]1[C@H](O)[C@@H](O)[C@H](O[C@@H]2O[C@@H](C)[C@](O)(C=O)[C@H]2O[C@@H]2O[C@@H](CO)[C@H](O)[C@@H](O)[C@@H]2NC)[C@@H](N/C(N)=N\[H])[C@@H]1O [streptomycin],growth of strain C38291 inhibited or not,[1],inhibited
CC1(C)S[C@@H]2[C@H](NC(=O)[C@H](N)c3ccccc3)C(=O)N2[C@H]1C(=O)O [ampicillin],growth of strain C38291 inhibited or not,[1],not
"COc1cc2c(oc(=O)c3cc(C)cc(OC)c32)c2c(C3OC(C)C(O)C(C)(O)C3O)ccc(O)c12 (stereo not drawn) [Albacarcin M, albacarcin M]",MIC,"[2]; Streptococcus pyogenes, read-out: Minimum Inhibitory Concentration",1.6 µg/mL
same,MIC,"[3]; Streptococcus pneumoniae, read-out: Minimum Inhibitory Concentration",0.4 µg/mL
same,MIC,"[4]; Proteus mirabilis, read-out: Minimum Inhibitory Concentration",> 50 µg/mL
same,MIC,"[5]; Pseudomonas aeruginosa, read-out: Minimum Inhibitory Concentration",> 50 µg/mL
same,MIC,"[6]; Enterobacter cloacae, read-out: Minimum Inhibitory Concentration",> 50 µg/mL
same,MIC,"[7]; Klebsiella pneumoniae, read-out: Minimum Inhibitory Concentration",> 50 µg/mL
same,MIC,"[8]; Serratia marcescens, read-out: Minimum Inhibitory Concentration",> 50 µg/mL
same,MIC,"[9]; Escherichia coli, Strain No. 15119, read-out: Minimum Inhibitory Concentration",> 50 µg/mL
same,Minimum Inhibitory Concentration,[9]; Strain No. 20341-1,> 50 µg/mL
same,MIC,"[10]; Proteus vulgaris, read-out: Minimum Inhibitory Concentration",> 50 µg/mL
same,MIC,[11]; Strain No. 9497,0.8 µg/mL
same,MIC,[11]; Strain No. 9537,3.2 µg/mL
same,MIC,[11]; Strain No. 9606,3.2 µg/mL
same,MIC,[11]; Strain No. 20688,1.6 µg/mL
same,Effect MST % T/C,[12]; 8 mg/kg/inj,113 % T/C
same,MST (median survival time),[12]; 8 mg/kg/inj,9.0 days
same,Effect MST % T/C,[12]; 16 mg/kg/inj,119 % T/C
same,MST (median survival time),[12]; 16 mg/kg/inj,9.5 days
same,Effect MST % T/C,[12]; 32 mg/kg/inj,150 % T/C
same,MST (median survival time),[12]; 32 mg/kg/inj,12.0 days
same,Effect MST % T/C,[12]; 64 mg/kg/inj,150 % T/C
same,MST (median survival time),[12]; 64 mg/kg/inj,12.0 days
same,Effect MST % T/C,[12]; 128 mg/kg/inj,175 % T/C
same,MST (median survival time),[12]; 128 mg/kg/inj,14.0 days
same,Effect MST % T/C,[12]; 256 mg/kg/inj,200 % T/C
same,MST (median survival time),[12]; 256 mg/kg/inj,16.0 days
same,host survival in the P388 leukemia screening test (in words),[12],significantly prolong host survival
same,gram-positive antibacterial activity (in words),[13],moderate gram-positive antibacterial activity
same,gram-negative activity (in words),[14],Little or no gram-negative activity
CC[C@H]1OC(=O)[C@H](C)[C@@H](O[C@H]2C[C@@](C)(OC)[C@@H](O)[C@H](C)O2)[C@H](C)[C@@H](O[C@@H]2O[C@H](C)C[C@H](N(C)C)[C@H]2O)[C@](C)(O)C[C@@H](C)C(=O)[C@H](C)[C@@H](O)[C@]1(C)O [erythromycin],growth of strain C38291 inhibited or not,[1],not
virenomycin,antitumor activity (in words),[15],comparatively low antitumor activity and narrow spectrum
CC1(C)S[C@@H]2[C@H](NC(=O)Cc3ccccc3)C(=O)N2[C@H]1C(=O)O [benzylpenicillin],growth of strain C38291 inhibited or not,[1],not
"C=Cc1cc(OC)c2c(c1)c(=O)oc1c2cc(OC)c2c(O)ccc(C3OC(C)C(O)C(C)(O)C3O)c21 (stereo not drawn) [Albacarcin V, albacarcin V]",Minimum Inhibitory Concentration,[2],0.05 µg/mL
same,Minimum Inhibitory Concentration,[3],0.025 µg/mL
same,Minimum Inhibitory Concentration,[4],> 50 µg/mL
same,Minimum Inhibitory Concentration,[5],> 50 µg/mL
same,Minimum Inhibitory Concentration,[6],> 50 µg/mL
same,Minimum Inhibitory Concentration,[7],> 50 µg/mL
same,Minimum Inhibitory Concentration,[8],> 50 µg/mL
same,Minimum Inhibitory Concentration,[9]; Strain No. 15119,> 50 µg/mL
same,Minimum Inhibitory Concentration,[9]; Strain No. 20341-1,> 50 µg/mL
same,Minimum Inhibitory Concentration,[10],3.2 µg/mL
same,Minimum Inhibitory Concentration,[11]; Strain No. 9497,0.0125 µg/mL
same,Minimum Inhibitory Concentration,[11]; Strain No. 9537,0.0125 µg/mL
same,Minimum Inhibitory Concentration,[11]; Strain No. 9606,0.4 µg/mL
same,Minimum Inhibitory Concentration,[11]; Strain No. 20688,0.1 µg/mL
same,Effect MST % T/C,[12]; 8 mg/kg/inj,113 % T/C
same,MST (median survival time),[12]; 8 mg/kg/inj,9.0 days
same,Effect MST % T/C,[12]; 16 mg/kg/inj,131 % T/C
same,MST (median survival time),[12]; 16 mg/kg/inj,10.5 days
same,Effect MST % T/C,[12]; 32 mg/kg/inj,150 % T/C
same,MST (median survival time),[12]; 32 mg/kg/inj,12.0 days
same,Effect MST % T/C,[12]; 64 mg/kg/inj,194 % T/C
same,MST (median survival time),[12]; 64 mg/kg/inj,15.5 days
same,Effect MST % T/C,[12]; 128 mg/kg/inj,200 % T/C
same,MST (median survival time),[12]; 128 mg/kg/inj,16.0 days
same,Effect MST % T/C,[12]; 256 mg/kg/inj,100 % T/C
same,MST (median survival time),[12]; 256 mg/kg/inj,8.0 days
same,potency relative to albacarcin M in P388 test,[12]; comparing optimum doses (maximum T/C) and minimum effective dose (lowest dose giving T/C>125),twice as potent as albacarcin M
same,host survival in the P388 leukemia screening test (in words),[12],significantly prolong host survival
same,antibacterial potency relative to albacarcin M,[13],more potent than albacarcin M
same,gram-positive antibacterial activity (in words),[13],moderate gram-positive antibacterial activity
same,gram-negative activity (in words),[14],Little or no gram-negative activity
CN(C)[C@@H]1C(=O)C(C(N)=O)=C(O)[C@@]2(O)C(=O)C3=C(O)c4c(O)cccc4[C@@](C)(O)[C@H]3C[C@@H]12 [tetracycline],growth of strain C38291 inhibited or not,[1],inhibited

# From patent US4461831A, “Antitumor agents albacarcins V and M” (Bristol-Myers Company, priority 1982, dated 1984)
